Experiment [1] relates to CD69 expression on CD19+ B cells in human whole blood. Kind of experiment: In Vitro whole blood CD69 Assay. Format: cell-based. The following applies: B-cell, read-out: In Vitro HWB CD69 Assay IC50 Score. In short, it runs like this: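 Heparinized healthy-donor human whole blood was preincubated with compound (0.1% DMSO) for 30 min at 37 °C. Stimulation used 0.1 µg/mL anti-IgD-dextran or 20 µg/mL rabbit F(ab′)2 anti-IgD for 18–22 h at 37 °C. CD69 on gated CD19+ B cells was then measured by flow cytometry.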

For the next experiment, the target named is T1, BTK (Homo sapiens, UniProt Q06187).
T1 construct: purchased Upstate 14-552
T1 sequence (Q06187 whole entry): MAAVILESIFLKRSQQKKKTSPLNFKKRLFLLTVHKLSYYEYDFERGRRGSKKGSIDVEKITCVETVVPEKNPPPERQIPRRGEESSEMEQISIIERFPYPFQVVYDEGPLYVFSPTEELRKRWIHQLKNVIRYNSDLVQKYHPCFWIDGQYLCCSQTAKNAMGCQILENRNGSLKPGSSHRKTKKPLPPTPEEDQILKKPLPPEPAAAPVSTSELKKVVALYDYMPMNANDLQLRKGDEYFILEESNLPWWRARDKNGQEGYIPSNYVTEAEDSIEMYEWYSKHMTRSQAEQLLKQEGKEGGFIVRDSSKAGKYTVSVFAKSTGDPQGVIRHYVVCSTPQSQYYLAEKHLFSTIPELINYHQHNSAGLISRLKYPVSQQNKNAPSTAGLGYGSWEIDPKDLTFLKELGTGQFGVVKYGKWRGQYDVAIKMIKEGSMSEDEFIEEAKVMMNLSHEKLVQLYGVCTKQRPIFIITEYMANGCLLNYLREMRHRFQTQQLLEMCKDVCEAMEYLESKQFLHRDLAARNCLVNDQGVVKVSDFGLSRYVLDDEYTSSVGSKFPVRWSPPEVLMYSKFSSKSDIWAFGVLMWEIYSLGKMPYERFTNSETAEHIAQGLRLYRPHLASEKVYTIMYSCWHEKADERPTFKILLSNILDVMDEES
Kind of experiment: In Vitro BTK Kinase Assay: Btk-PolyGAT-LS Assay. Particulars: active BTK enzyme 0.25 nM, polyGAT 100 nM, 30 minutes, TRF readout; read-out: In Vitro BTK Kinase Assay IC50 Score. The experiment is classed as biochemical. In short, it runs like this: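 IC50 values came from a four-parameter fit, with DMSO controls as 100% activity and EDTA controls as 0%. The signal was TR-FRET from a Tb-PY20 antibody binding fluorescein-polyGAT (100 nM) phosphorylated by 0.25 nM BTK. Kinase reactions used 10 μM ATP, a 4-fold compound titration, and ran 30 minutes before EDTA stop.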

Where [2] appears, read: human heparinized whole blood, anti-human IgD stimulation overnight, CD19+ B cells, flow cytometry.

Each structure is given as a SMILES string. Read-outs that look alike come from different tables or passages of the source.

Consider 13 compounds from patent US20250034150A1, “BTK INHIBITORS” (BIOGEN MA INC., priority 2021, published 2025).

Take `Cn1cc(-c2cn3nccc3c(-c3ccc(CNC(=O)c4nc(C(C)(C)C)no4)cc3)n2)cn1` [Example 19, 3-(tert-butyl)-N-(4-(6-(1-methyl-1H-pyrazol-4-yl)pyrazolo[1,5-a]pyrazin-4-yl)benzyl)-1,2,4-oxadiazole-5-carboxamide]: the IC50 in experiment [1] (setting [2]) was less than 1000 nM; on BTK it was less than 1 nM.

Consider `Cn1cc(-c2cc3nccn3c(-c3ccc(CNC(=O)c4cn(C(C)(C)C)nn4)cc3)n2)cn1` [Example 59, 1-(tert-butyl)-N-(4-(7-(1-methyl-1H-pyrazol-4-yl)imidazo[1,2-c]pyrimidin-5-yl)benzyl)-1H-1,2,3-triazole-4-carboxamide], for which the concentration for half-maximal inhibition (IC50) in experiment [1] (setting [2]) was less than 1000 nM; on BTK, 1 to 10 nM.

In the case of `Cc1cc(-c2nc(-c3cnn(C)c3)cn3nccc23)ccc1CNC(=O)c1noc(C(C)(C)C)n1` [Example 80, 5-(tert-butyl)-N-(2-methyl-4-(6-(1-methyl-1H-pyrazol-4-yl)pyrazolo[1,5-a]pyrazin-4-yl)benzyl)-1,2,4-oxadiazole-3-carboxamide], the values for the IC50 (in experiment [1] (setting [2]); on BTK) were less than 1000 nM and less than 1 nM, respectively.

For the compound `CC(C)CN1CCN(Cc2ccc(-c3nc(-c4cnn(C)c4)cn4nccc34)cc2F)C(=O)C1` [Example 34, 1-(2-fluoro-4-(6-(1-methyl-1H-pyrazol-4-yl)pyrazolo[1,5-a]pyrazin-4-yl)benzyl)-4-isobutylpiperazin-2-one], the IC50 in experiment [1] (setting [2]) was in the range of 1000 to 10000 nM; at BTK, 1 to 10 nM.

Regarding `Cn1cc(-c2cn3nccc3c(-c3ccc(CNC(=O)c4ccn(C(C)(C)C)n4)cc3)n2)cn1` [Example 1, 1-(tert-butyl)-N-(4-(6-(1-methyl-1H-pyrazol-4-yl)pyrazolo[1,5-a]pyrazin-4-yl)benzyl)-1H-pyrazole-3-carboxamide], the IC50 in experiment [1] (setting [2]) was in the range of 1000 to 10000 nM; on BTK, 10 to 1000 nM.

Take `Cn1cc(-c2cn3nccc3c(-c3ccc(CNC(=O)c4cnn(C(C)(C)C)n4)c(C(F)F)c3)n2)cn1` [Example 104, 2-(tert-butyl)-N-(2-(difluoromethyl)-4-(6-(1-methyl-1H-pyrazol-4-yl)pyrazolo[1,5-a]pyrazin-4-yl)benzyl)-2H-1,2,3-triazole-4-carboxamide]: the 50% inhibitory concentration (IC50) in experiment [1] (setting [2]) is 1000 to 10000 nM; on BTK it was less than 1 nM.

For `C[C@@H]1C(c2nc(C(=O)NCc3ccc(-c4nc(-c5cnn(C)c5)cc5nccn45)cc3)no2)[C@@H]1C` (mixture of isomers) [Example 62, 5-(2,3-cis-dimethylcyclopropyl)-N-(4-(7-(1-methyl-1H-pyrazol-4-yl)imidazo[1,2-c]pyrimidin-5-yl)benzyl)-1,2,4-oxadiazole-3-carboxamide], the figures for the IC50 (in experiment [1] (Homo sapiens); on BTK) were 1000 to 10000 nM and 1 to 10 nM, respectively.

As for `Cn1cc(-c2cn3nccc3c(-c3ccc(CNC(=O)c4nnn(C(C)(C)C)n4)cc3)n2)cn1` [Example 3, 2-(tert-butyl)-N-(4-(6-(1-methyl-1H-pyrazol-4-yl)pyrazolo[1,5-a]pyrazin-4-yl)benzyl)-2H-tetrazole-5-carboxamide], the IC50 is less than 1000 nM in experiment [1] (setting [2]) and less than 1 nM at BTK.

Regarding `Cn1cc(-c2cn3nccc3c(N3CCC(C)(CNC(=O)c4noc(C(C)(C)C)n4)CC3)n2)cn1` [Example 41, 5-(tert-butyl)-N-((4-methyl-1-(6-(1-methyl-1H-pyrazol-4-yl)pyrazolo[1,5-a]pyrazin-4-yl)piperidin-4-yl)methyl)-1,2,4-oxadiazole-3-carboxamide], the IC50 in experiment [1] (setting [2]) lay within 1000 to 10000 nM; on BTK, 1 to 10 nM.

For the compound `Cn1cc(-c2cc(-c3ccc(CNC(=O)c4noc(C5(C)CC5)n4)cc3)n3cnnc3c2)cn1` [Example 76, N-(4-(7-(1-methyl-1H-pyrazol-4-yl)-[1,2,4]triazolo[4,3-a]pyridin-5-yl)benzyl)-5-(1-methylcyclopropyl)-1,2,4-oxadiazole-3-carboxamide], the half-inhibitory concentration (IC50) in experiment [1] (setting [2]) fell in the range of 1000 to 10000 nM; on BTK, 10 to 1000 nM.

Turning to `Cn1cc(-c2cn3nccc3c(-c3ccc(CNC(=O)c4cnn(C(C)(C)C)c4)cc3)n2)cn1` [Example 2, 1-(tert-butyl)-N-(4-(6-(1-methyl-1H-pyrazol-4-yl)pyrazolo[1,5-a]pyrazin-4-yl)benzyl)-1H-pyrazole-4-carboxamide], the results for the IC50 (in experiment [1] (setting [2]); on BTK) were less than 1000 nM and 1 to 10 nM, respectively.

Consider `Cn1cc(-c2cn3nccc3c(-c3ccc(CNC(=O)c4noc(C5(CF)CC5)n4)cc3)n2)cn1` [Example 20, 5-(1-(fluoromethyl)cyclopropyl)-N-(4-(6-(1-methyl-1H-pyrazol-4-yl)pyrazolo[1,5-a]pyrazin-4-yl)benzyl)-1,2,4-oxadiazole-3-carboxamide], for which the IC50 in experiment [1] (setting [2]) is less than 1000 nM; at BTK it was less than 1 nM.

`Cn1cc(-c2cn3nccc3c(N3CCC(C)(CNC(=O)c4cn(C(C)(C)C)nn4)CC3)n2)cn1` [Example 44, 1-(tert-butyl)-N-((4-methyl-1-(6-(1-methyl-1H-pyrazol-4-yl)pyrazolo[1,5-a]pyrazin-4-yl)piperidin-4-yl)methyl)-1H-1,2,3-triazole-4-carboxamide]: the IC50 in experiment [1] (setting [2]) fell in the range of 1000 to 10000 nM; on BTK it was 10 to 1000 nM.
